Assay results from article PMC9007292, “8‐Prenylnaringenin tissue distribution and pharmacokinetics in mice and its binding to human serum albumin and cellular uptake in human embryonic kidney cells” (Food Science & Nutrition, 2022).
Several values for one entry are separate records, joined by “and”; a condition that tells them apart may be missing. Identical values can stand only once.

How the values were obtained:
site I of HSA = site I of HSA (Homo sapiens, UniProt P02768); assay: Fluorescence competitive binding assay with site‐selective probe DNSA; conditions: for Inhibition ratio, site I / Competitive inhibition rate of the probe binding, Site I: DNSA probe; for inhibition at 100 µM: human, defatted human serum albumin (HSA) in phosphate buffer, pH 7.4, probe dansylamide (DNSA); for Competitive inhibition rate of the probe binding, Site I: 100 µM, n = 3, mean ± SE
Protocol: (§1) A fluorescent dye cocktail containing 0.33 mM BD140 and 1 mM DNSA was prepared in DMSO. Defatted HSA (A3782‐1G; Sigma‐Aldrich) was dissolved in phosphate buffer (pH 7.4) at a concentration of 0.67 mg/ml. Each flavonoid was dissolved in DMSO (stock solution) at 100 times the test concentration. Subsequently, 637 µl HSA solution, 6.5 µl fluorescent dye cocktail, and 6.5 µl flavonoid were mixed and divided into three wells on a 96‐well multi‐black plate. The final concentration of flavonoids was 1–100 μM. […] The HSA‐binding affinities of the flavonoids were evaluated by measuring the competitive inhibition rate of the probes binding to flavonoids according to Equation (1): (1) Flavonoidinhibitionpercentage(%)=F1‐F2/F1×100, where F 1 is the fluorescence intensity of DMSO and F 2 represents the fluorescence intensity of each flavonoid.

[1] = Tissue distribution after 22 days of 8‐PN or naringenin mixed diet; assay type: in vivo, C57/BL6 mice; conditions: for Percentage of aglycone in the liver: aglycone to total; for 8‐PN aglycone in the liver: without deconjugation
Source text: We planned the nutritional composition and feeding period according to previous similar research (Andres-Lacueva et al., [2012]; Bieger et al., [2008]; Boer et al., [2005]; Mukai et al., [2013]; Takumi et al., [2011]). […] Though this dose concentration may not be achieved through regular diet or supplementation, this concentration was used in accordance with previous studies that evaluated the tissue distribution of flavonoids (0.2% [w/w]) (Mukai et al., [2013]; Takumi et al., [2011]). The mice were fed each diet via normal oral feeding for 22 days. In the pharmacokinetic study (Section 2.5), we administered each nutrient to mice at a dose of 50 mg/kg body weight (BW) via oral gavage after 18 h of starvation. Although this dose concentration may not reflect regular diet or supplementation, this or higher concentrations have been applied for pharmacokinetic study of flavonoids (Bai et al., [2020]; Hung et al., [2018]; Mukai et al., [2013]). All experimental protocols were approved by the Committee on Animal Experiments of Tokushima University (approval number: 11013). All efforts were made to minimize animal suffering. Seven-week-old male C57/BL6 mice (Japan SLC) were housed in a room maintained at 23 ± 1°C under a 12-h/12-h light/dark cycle. Diets consisted of 8-PN or naringenin (0.56 mmol/kg diet) mixed with AIN-93M (AIN-93M; Oriental Yeast Company), with the cellulose contents reduced to adjust the composition of other nutrients. The mice (n = 7 or 8) were fed these diets via normal oral feeding for 22 days and allowed free access to water. The liver, kidneys, quadricep muscles, pancreas, lungs, brain, spleen, and heart were collected from the mice under anesthesia and weighed. Before freezing, the liver tissues were flushed with ice-cold phosphate-buffered saline (PBS, pH 7.4) to avoid blood contamination. All samples were stored at -80°C under N2 gas until extraction of flavonoid. Sample preparation was performed according to a previous report (Mukai et al., [2013]). Each tissue was homogenized in PBS on ice (nine times the volume of the tissue wet weight) using a Teflon homogenizer (As One). […] The hydrolysates were then subjected to extraction three times with equal volumes of ethyl acetate and evaporated using a centrifugal evaporator (CVE-100; Tokyo Rikakikai). The extracts were dissolved in 50 μl of methanol containing 0.5% phosphoric acid. Then, 20 μl from each sample was injected into the HPLC-UV system. […] Shimadzu) with a Cadenza CD-C18 HPLC column (3 μm, 4.6 × 150 mm; […]). […] 8-PN and naringenin amounts were determined using an internal standard method. […] Since a clear peak was actually detected for 8-PN over 2 pmol (0.1 μM), and for naringenin over 4 pmol (0.2 μM) based on visual evaluation, we determined these concentrations were the LODs for each flavonoid.

[2] = design: method as in Rad et al., 2006; conditions: postmenopausal women, mostly conjugated metabolites, ref Rad et al., 2006; cited from earlier work
site II of HSA = site II of HSA (Homo sapiens, UniProt P02768); assay: Fluorescence competitive binding assay with site‐selective probe BD140; conditions: for inhibition at 100 µM: human, defatted human serum albumin (HSA) in phosphate buffer, pH 7.4, probe BD140; for Competitive inhibition rate of the probe binding, Site II: BD140 probe, 100 µM, n = 3, mean ± SE
Sequence of site II of HSA (P02768 25-609): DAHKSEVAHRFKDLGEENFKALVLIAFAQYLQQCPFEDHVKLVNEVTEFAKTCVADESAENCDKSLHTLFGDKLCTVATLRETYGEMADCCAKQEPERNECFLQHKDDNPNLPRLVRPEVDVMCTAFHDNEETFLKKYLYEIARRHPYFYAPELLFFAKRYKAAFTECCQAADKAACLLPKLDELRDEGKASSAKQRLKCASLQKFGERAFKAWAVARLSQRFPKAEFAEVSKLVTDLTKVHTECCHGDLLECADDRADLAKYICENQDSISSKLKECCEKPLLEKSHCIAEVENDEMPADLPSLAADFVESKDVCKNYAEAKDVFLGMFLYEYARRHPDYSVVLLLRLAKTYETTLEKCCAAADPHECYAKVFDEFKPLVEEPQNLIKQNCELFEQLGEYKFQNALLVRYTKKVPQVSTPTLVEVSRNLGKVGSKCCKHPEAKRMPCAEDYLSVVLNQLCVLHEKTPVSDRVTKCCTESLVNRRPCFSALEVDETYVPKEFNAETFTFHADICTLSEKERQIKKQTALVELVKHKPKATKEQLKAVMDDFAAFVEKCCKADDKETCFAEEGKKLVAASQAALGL
Protocol: as §1

Sequence of site I of HSA (P02768 25-609): as above

Structure (SMILES) | Inhibition ratio, site I (site I of HSA; 1 µM) | Inhibition ratio, site I (site I of HSA; 50 µM) | inhibition at 100 µM (site I of HSA) | inhibition at 100 µM (site II of HSA) | Competitive inhibition rate of the probe binding, Site I (site I of HSA) | Competitive inhibition rate of the probe binding, Site II (site II of HSA) | other results
CC(C)=CCc1c(O)cc(O)c2c1O[C@H](c1ccc(O)cc1)CC2=O [8‐PN, 8‐Prenylnaringenin] | 10.3% | 36.7% | 61.1 ± 0.6% | 28.3 ± 2.8% |  |  | Percentage of aglycone in the liver ([1]; average of 7 mice): 11.7%; 8‐PN aglycone in the liver ([1]; average of 7 mice): 1.58 nmol/g wet tissue; Percentage of aglycone in the liver ([1]; individual mice #1-7): 15.9% and 20.9% and 9.5% and 6.3% and 7.8% and 5.7% and 15.7%; 8‐PN aglycone in the liver ([1]; individual mice #1-7, 22 days diet): 0.62 nmol/g wet tissue and 3.23 nmol/g wet tissue and 1.62 nmol/g wet tissue and 1.50 nmol/g wet tissue and 0.66 nmol/g wet tissue and 1.18 nmol/g wet tissue and 2.24 nmol/g wet tissue; Time of absorption into the bloodstream after oral administration [2]: 1 to 1.5 h
CC(C)=CCc1c(O)cc(O)c2c1OC(c1ccc(O[C@@H]3O[C@H](C(=O)O)[C@@H](O)[C@H](O)[C@H]3O)cc1)CC2=O (stereo partly shown) [8‐PN‐4′G, 8‐PN 4′‐glucuronide] |  |  |  |  | n.d. ^a (The result without competitive inhibition (≤0) with the fluorescent probe is shown as not determined (n.d.)) | n.d. ^a (The result without competitive inhibition (≤0) with the fluorescent probe is shown as not determined (n.d.)) | 
CC(C)=CCc1c(O[C@@H]2O[C@H](C(=O)O)[C@@H](O)[C@H](O)[C@H]2O)cc(O)c2c1OC(c1ccc(O)cc1)CC2=O (stereo partly shown) [8‐PN‐7G, 8‐PN 7‐glucuronide] | 12.8% | 37.9% |  |  | 37.2 ± 0.6 % | n.d. ^a (The result without competitive inhibition (≤0) with the fluorescent probe is shown as not determined (n.d.)) | Binding constant to HSA (site I of HSA; from competition profile for site I (Figure 3)): 24200 M
O=C1C[C@@H](c2ccc(O[C@@H]3O[C@H](C(=O)O)[C@@H](O)[C@H](O)[C@H]3O)cc2)Oc2cc(O)cc(O)c21 [N4′G, Naringenin 4′‐glucuronide, reference compound] |  |  |  |  | 5.2 ± 2.8% | 2.4 ± 2.4% | 
O=C1C[C@@H](c2ccc(O)cc2)Oc2cc(O[C@@H]3O[C@H](C(=O)O)[C@@H](O)[C@H](O)[C@H]3O)cc(O)c21 [N7G, naringenin 7‐glucuronide, reference compound] |  |  |  |  | 10.0 ± 3.0% | 9.6 ± 4.8% | 
O=C1C[C@@H](c2ccc(O)cc2)Oc2cc(O)cc(O)c21 [Naringenin] |  |  | 25.3 ± 0.4% | 8.3 ± 3.9% |  |  | 
